From PubChem BioAssay (NCI)
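48-hour exposure; five concentrations; linearly interpolated endpoints. At the GI50, growth is halved. At the TGI there is no net growth.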

Tests used:
Experiment in all cases: NCI tumour cell line growth inhibition, 48 h
[1] = test system: K-562 leukemia
[2] = test system: SF-268 CNS
[3] = test system: MCF7 breast
[4] = test system: UACC-257 melanoma
[5] = test system: RPMI-8226 leukemia
[6] = test system: KM12 colon
[7] = test system: SK-MEL-2 melanoma
[8] = test system: OVCAR-5 ovarian
[9] = test system: NCI-H226 lung
[10] = test system: SN12C renal

Cc1cc(O)ccc1C1(c2ccc(O)cc2C)OC(=O)c2ccccc21
GI50 [1]: 28 µM
TGI [1]: > 100 µM
GI50 [2]: 19 µM
TGI [2]: 43.9 µM
GI50 [3]: 18.1 µM
TGI [3]: 36.5 µM
GI50 [4]: 23.8 µM
TGI [4]: 46 µM
GI50 [5]: 28.1 µM
TGI [5]: 78.7 µM
GI50 [6]: 18.8 µM
TGI [6]: 37.7 µM
GI50 [7]: 18.4 µM
TGI [7]: 33.8 µM
GI50 [8]: 16 µM
TGI [8]: 32.9 µM
GI50 [9]: 19.1 µM
TGI [9]: 41 µM
GI50 [10]: 19.5 µM
TGI [10]: 39.9 µM

CO/N=C(/C)COc1ccc2c(c1)oc(=O)c1cc(OC)ccc12
GI50 [1]: > 100 µM
TGI [1]: > 100 µM
GI50 [2]: > 100 µM
TGI [2]: > 100 µM
GI50 [3]: > 100 µM
TGI [3]: > 100 µM
GI50 [4]: > 100 µM
TGI [4]: > 100 µM
GI50 [5]: > 100 µM
TGI [5]: > 100 µM
GI50 [6]: > 100 µM
TGI [6]: > 100 µM
GI50 [7]: > 100 µM
TGI [7]: > 100 µM
GI50 [8]: > 100 µM
TGI [8]: > 100 µM
GI50 [9]: > 100 µM
TGI [9]: > 100 µM
GI50 [10]: > 100 µM
TGI [10]: > 100 µM

c1cc[n+](Cc2c3ccccc3cc3c2ccc2ccccc23)cc1
GI50 [1]: 3.21 µM
TGI [1]: 17.8 µM
GI50 [2]: 1.13 µM
TGI [2]: 5.48 µM
GI50 [3]: 3.25 µM
TGI [3]: 13.2 µM
GI50 [4]: 2.34 µM
TGI [4]: 5.48 µM
GI50 [5]: 2.31 µM
TGI [5]: 8.87 µM
GI50 [6]: 3.09 µM
TGI [6]: 11.8 µM
GI50 [7]: 2.14 µM
TGI [7]: 4.69 µM
GI50 [8]: 11.1 µM
TGI [8]: 26.8 µM
GI50 [9]: 2.92 µM
TGI [9]: 24.8 µM
GI50 [10]: 0.506 µM
TGI [10]: 4.73 µM

COc1ccc(OC(=O)N2C/C(=C\c3ccccc3)C(=O)/C(=C/c3ccccc3)C2)cc1
TGI [1]: 7.66 µM
TGI [2]: 15.2 µM
TGI [3]: 4.77 µM
TGI [4]: 7.71 µM
TGI [5]: 0.172 µM
TGI [6]: 4.18 µM
TGI [7]: 45.6 µM
TGI [8]: 27.1 µM
TGI [9]: 30.3 µM
TGI [10]: 5.83 µM

COc1ccc(OC)c(C2=C(c3cn(C)c4ccccc34)C(=O)NC2=O)c1
GI50 [1]: 17.1 µM
TGI [1]: > 25 µM
GI50 [2]: > 25 µM
TGI [2]: > 25 µM
GI50 [3]: > 20.7 µM
TGI [3]: > 25 µM
GI50 [4]: > 25 µM
TGI [4]: > 25 µM
GI50 [5]: > 25 µM
TGI [5]: > 25 µM
GI50 [6]: 22.4 µM
TGI [6]: > 25 µM
GI50 [7]: > 25 µM
TGI [7]: > 25 µM
GI50 [8]: > 25 µM
TGI [8]: > 25 µM
GI50 [9]: > 25 µM
TGI [9]: > 25 µM
GI50 [10]: > 25 µM
TGI [10]: > 25 µM

CCCCCCCCCCCCCCCC(=O)NS(=O)(=O)OC[C@H]1O[C@@H](n2cnc3c(N)ncnc32)[C@H](O)[C@@H]1O
GI50 [1]: 1.65 µM
TGI [1]: 10 µM
GI50 [2]: < 0.0481 µM
TGI [2]: 1.28 µM
GI50 [3]: 0.509 µM
TGI [3]: 9.77 µM
GI50 [4]: 0.333 µM
TGI [4]: 1.47 µM
GI50 [5]: 3.44 µM
TGI [5]: 14.2 µM
GI50 [6]: < 0.0421 µM
TGI [6]: 3.01 µM
GI50 [7]: 0.588 µM
TGI [7]: 2.83 µM
GI50 [8]: < 0.0158 µM
TGI [8]: < 0.0339 µM
GI50 [9]: < 0.0245 µM
TGI [9]: < 0.0497 µM
GI50 [10]: 0.262 µM
TGI [10]: 1.45 µM

COc1ccc2c(c1)OCC1c3cc(OC)c4ccccc4c3OC21 (centres undefined)
GI50 [1]: 4.62 µM
TGI [1]: > 100 µM
GI50 [2]: 12.1 µM
TGI [2]: > 100 µM
GI50 [3]: 3.59 µM
TGI [3]: > 100 µM
GI50 [4]: 35.5 µM
TGI [4]: > 100 µM
GI50 [5]: 10.6 µM
TGI [5]: > 100 µM
GI50 [6]: 4.82 µM
TGI [6]: > 100 µM
GI50 [7]: 12.2 µM
TGI [7]: 77.7 µM
GI50 [8]: 10.2 µM
TGI [8]: 57 µM
GI50 [9]: 15.6 µM
TGI [9]: 90.2 µM
GI50 [10]: 17.1 µM
TGI [10]: 77.4 µM

C=C(C)COc1ccc2c(c1)CCC1C2CCC2(C)C(=O)/C(=N/O)CC12 (centres undefined)
TGI [1]: 9.96 µM
TGI [2]: 23.3 µM
TGI [3]: 10.5 µM
TGI [4]: 23.5 µM
TGI [5]: 7.54 µM
TGI [6]: 5.77 µM
TGI [7]: 14.1 µM
TGI [8]: 18.7 µM
TGI [9]: 26.6 µM
TGI [10]: 14 µM

C[n+]1cccc(NC(=O)c2ccc3ccc4ccc(C(=O)Nc5ccc[n+](C)c5)nc4c3n2)c1
GI50 [1]: 2.4 µM
TGI [1]: > 100 µM
GI50 [2]: 3.82 µM
TGI [2]: 42.1 µM
GI50 [3]: 2.35 µM
TGI [3]: > 100 µM
GI50 [4]: > 100 µM
TGI [4]: > 100 µM
GI50 [5]: 2.99 µM
TGI [5]: > 100 µM
GI50 [6]: 3.08 µM
TGI [6]: > 100 µM
GI50 [7]: 6.71 µM
TGI [7]: > 100 µM
GI50 [8]: 47.8 µM
TGI [8]: > 100 µM
GI50 [9]: 0.121 µM
TGI [9]: 0.693 µM
GI50 [10]: 0.157 µM
TGI [10]: 1.32 µM

COc1cc(/C=C2\CCC/C(=C\c3cc(CN4CCCC4)c(O)c(OC)c3)C2=O)cc(CN2CCCC2)c1O
GI50 [1]: 3 µM
TGI [1]: 16.9 µM
GI50 [2]: 4.53 µM
TGI [2]: 16.3 µM
GI50 [3]: 4.82 µM
TGI [3]: 23.6 µM
GI50 [4]: 5.29 µM
TGI [4]: 19.6 µM
GI50 [5]: 2.16 µM
TGI [5]: 7.58 µM
GI50 [6]: 2.73 µM
TGI [6]: 7.15 µM
GI50 [7]: 5.09 µM
TGI [7]: 19.5 µM
GI50 [8]: 4.18 µM
TGI [8]: 13.4 µM
GI50 [9]: 2.57 µM
TGI [9]: 6.84 µM
GI50 [10]: 4.89 µM
TGI [10]: 21.2 µM

Cc1[nH]c(C(=O)Nc2cccc(OC3CCNCC3)c2)c(Cl)c1Cl
GI50 [1]: 1.76 µM
TGI [1]: 4.53 µM
GI50 [2]: 1.77 µM
TGI [2]: 3.75 µM
GI50 [3]: 1.5 µM
TGI [3]: 3.05 µM
GI50 [4]: 1.76 µM
TGI [4]: 3.55 µM
GI50 [5]: 2.05 µM
TGI [5]: 4.59 µM
GI50 [6]: 1.93 µM
TGI [6]: 3.73 µM
GI50 [7]: 2.14 µM
TGI [7]: 4.54 µM
GI50 [8]: 1.63 µM
TGI [8]: 3.11 µM
GI50 [9]: 2.43 µM
TGI [9]: 6.78 µM
GI50 [10]: 2.8 µM
TGI [10]: 10.1 µM

COc1ccccc1/C=C1\CCC(Cc2ccccc2)(CN(C)C)C1=O (centres undefined)
TGI [1]: > 34.5 µM
TGI [2]: > 100 µM
TGI [3]: 25.6 µM
TGI [4]: > 100 µM
TGI [5]: 39.1 µM
TGI [6]: 15.9 µM
TGI [7]: 34.8 µM
TGI [8]: > 81.9 µM
TGI [9]: 80.4 µM
TGI [10]: 50.3 µM

CCN1C(=O)/C(=c2\sc3n(c2=O)C2C(NN=3)N(CC)C(=O)N2CC)c2ccccc21 (centres undefined)
GI50 [1]: 0.362 µM
TGI [1]: > 100 µM
GI50 [2]: 2.57 µM
TGI [2]: > 100 µM
GI50 [3]: 0.357 µM
TGI [3]: > 100 µM
GI50 [4]: 22.4 µM
TGI [4]: > 100 µM
GI50 [5]: 0.366 µM
GI50 [6]: 0.469 µM
TGI [6]: > 73.4 µM
GI50 [7]: 3.21 µM
TGI [7]: 44.2 µM
GI50 [8]: 2.02 µM
TGI [8]: > 100 µM
GI50 [9]: 0.736 µM
TGI [9]: 22.8 µM
GI50 [10]: 0.615 µM
TGI [10]: > 100 µM
